Experiments:
[1] = test system: IL-6 in human peripheral blood mononuclear cells (huPBMCs); assay: IL-6 inhibition in LPS-stimulated human peripheral blood mononuclear cells (HTRF); format: cell-based; details: Homo sapiens, PBMC; for EC50: LPS 50 ng/mL, 22 hours, IL-6 HTRF; for inhibition at 10 µM: read-out: percent inhibition at 10 μM (given for EC50 >10 μM), LPS, IL-6, 10 μM
Outline: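 Compound-treated huPBMCs (1×10e6 cells/mL, 1% FBS-RPMI) were stimulated after 2 h with LPS (50 ng/mL) for another 22 h at 37° C. An anti-IL-6 HTRF pair reported IL-6 as the 665/620 nm ratio; activity relative to DMSO, EC50 by 4-parameter Levenberg-Marquardt fitting, duplicates.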

[2] = test system: Wnt activity (SW480 colon carcinoma cells stably expressing the Sp5-Luc reporter gene); assay: Wnt activity screening assay (Sp5-Luc reporter gene assay); format: cell-based, human; details: Homo sapiens; for EC50: 36 to 48 hours; for inhibition at 10 µM: read-out: percent inhibition at 10 μM (given for EC50 >10 μM), 10 μM
Outline: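 EC50 values come from a variable-slope four-parameter fit of luminescence normalized to DMSO-only wells. The read-out follows 36–48 h incubation at 37 °C, 5% CO2, in DMEM containing 1% fetal bovine serum. Cells are hygromycin-selected SW480 stably expressing firefly luciferase under a Wnt-responsive Sp5 promoter (eight TCF/LEF sites).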

[3] = test system: secreted cytokines TNFα, IL-6 and KC-GRO in BV-2 cells (mouse microglial cells); assay: Secreted cytokines in lipopolysaccharide-stimulated mouse glial cell line; format: cell-based; details: LPS 250 ng/mL 5 hours, table does not say which cytokine
Outline: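 BV-2 cells seeded at 35,000/well were pretreated overnight with compound (10 μM to 4.6 nM final), then stimulated 5 h with 250 ng/mL E. coli O111:B4 LPS. Supernatant TNFα, IL-6 and KC-GRO were quantified by electrochemiluminescence against standard curves (pg/mL) to fit EC50. Cytotoxicity was checked by CellTiter-Glo ATP read-out.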

[4] = test system: LL29 cells (primary human fibroblasts derived from IPF patients), α-smooth muscle actin; assay: Inhibition of fibrotic process: TGF-β1-treated primary human fibroblasts, αSMA staining; format: cell-based; details: Homo sapiens, Fibroblast; for EC50: 96 h, TGF-β1 20 ng/mL, 4 days, % cells positive for αSMA; for inhibition at 10 µM: read-out: percent inhibition at 10 μM (given for EC50 >10 μM), TGF-β1, αSMA, 10 μM;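 on all read-outs here: controls were TGF-β1-stimulated wells with DMSO vehicle as the positive reference and cells given DMSO alone as the negative reference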
Experimental: Representative compounds were screened using primary human fibroblasts (derived from IPF patients) treated with TGF-β1 to determine their ability to inhibit the fibrotic process.
Human Fibroblast Cell Culture:
Each compound was dissolved in DMSO as a 10 mM stock and used to prepare compound source plates. […] LL29 cells were plated at 1,500 cells/well in 70 μL/well F12 medium supplemented with 1% Fetal Bovine Serum. […] Wells treated with TGF-β1 and containing DMSO were used as positive control, and cells with only DMSO were negative control. Cells were incubated at 37° C. and 5% CO2 for 4 days. Following incubation for 4 days, SYTOX green nucleic acid stain (Life Technologies [Thermo Fisher Scientific]) was added to the wells at a final concentration of 1 μM and incubated at room temperature for 30 min. Cells were then fixed using 4% formaldehyde (Electron Microscopy Sciences), washed 3 times with PBS followed by blocking and permeabilization using 3% Bovine Serum Albumin (BSA; Sigma) and 0.3% Triton X-100 (Sigma) in PBS.

[5] = test system: SW480 colon carcinoma cells; assay: Cell viability assay (CellTiter-Glo); format: cell-based, human; details: Homo sapiens; for EC50: 96 h, four days, CellTiter-Glo; for inhibition at 10 µM: read-out: percent inhibition at 10 μM (given for EC50 >10 μM), 10 μM
[6] = test system: pT212Tau in Dyrk1a- and MAPT-overexpressing HEK293T cells; assay: Tau phosphorylation at Threonine 212 (pT212Tau) sandwich ELISA in double transfected cells; details: Homo sapiens, HEK-293T, read-out: Thr212 EC50 (μM)
Experimental: HEK293T cells (transfectable human embryonic kidney cells) were cultured in DMEM medium supplemented with 10% FBS and 1% penicillin/streptomycin.
HEK293T cells were transiently transfected to overexpress Dyrk1a and microtubule-associated protein Tau (MAPT) genes. Specifically, Dyrk1a and MAPT expression vectors were obtained from OriGene (10 μg of each, catalog numbers SC314641 and RC216166, respectively). […] HEK293T cells were seeded at 1.0×10^7 cells in 10 mL per T-75 flask. […] One T-75 flask was designated as a no-vector negative control for pT212Tau signal.
After 4-6 hours of incubation in transfection reagents, transiently double transfected HEK293T cells were dissociated by treatment with trypsin EDTA and seeded at 1.0×10^5 cells in 100 μL per well in 96-well plates. No-vector negative controls were seeded in separate 96-well plates to avoid the risk of the negative control cells picking up the overexpression during incubation.
96-well flat-bottom plates were coated with 100 μL per well anti-HT7 capture antibody (ThermoFisher, MN1000) diluted 1:300 in 1×PBS at 4° C. overnight, with shaking at 500 rpm.
Cells were then lysed with 100 μL 1×RIPA buffer supplemented with phosphatase and protease inhibitors (each diluted to a final 1×). […] V-bottom plates were centrifuged at 4000 rpm, 4° C., for 15 minutes, and 100 μL of lysate supernatant from each well was directly tested for pT212Tau signal by sandwich ELISA.

| EC50 [1] [µM] | EC50 [2] [µM] | EC50 [3] [µM] | EC50 [5] [µM] | SMILES | EC50 [4] [µM] | inhibition at 10 µM [4] [%] | EC50 [6] [µM] | inhibition at 10 µM [2] [%] | inhibition at 10 µM [1] [%] | inhibition at 10 µM [5] [%] |
| --- | --- | --- | --- | --- | --- | --- | --- | --- | --- | --- |
| 8.95 | 0.312 | 0.109 | 2.2 | CN1CCC(C(=O)Nc2cc3cc(-c4cncc(N5CCCC5)c4)ccc3cn2)CC1 [Compound 50, 1-Methyl-N-(6-(5-(pyrrolidin-1-yl)pyridin-3-yl)isoquinolin-3-yl)piperidine-4-carboxamide] | > 10 | 31.1 | 0.113 |  |  |  |
| 3 | 1.27 | 0.171 | 4.06 | O=C(Nc1cc2cc(-c3cncc(CN4CCCC4)c3)ccc2cn1)C1CC1 [Compound 51, N-(6-(5-(Pyrrolidin-1-ylmethyl)pyridin-3-yl)isoquinolin-3-yl) cyclopropanecarboxamide] | 4.23 |  | 0.047 |  |  |  |
| 3.25 | 0.691 | 0.055 | 2.35 | O=C(Nc1cc2cc(-c3cncc(CN4CCC(O)CC4)c3)ccc2cn1)C1CC1 [Compound 53, N-(6-(5-((4-Hydroxypiperidin-1-yl)methyl)pyridin-3-yl)isoquinolin-3-yl) cyclopropanecarboxamide] | 3.07 |  | 0.003 |  |  |  |
| 9.5 | 1.23 | 0.177 | 3.3 | CN1CCN(Cc2cncc(-c3ccc4cnc(NC(=O)C5CC5)cc4c3)c2)CC1 [Compound 56, N-(6-(5-((4-Methylpiperazin-1-yl)methyl)pyridin-3-yl)isoquinolin-3-yl) cyclopropanecarboxamide] | 5.13 |  | 0.045 |  |  |  |
| 3.8 | 1.14 | 0.152 | 3.18 | O=C(Nc1cc2cc(-c3cncc(CN4CCOCC4)c3)ccc2cn1)C1CC1 [Compound 57, N-(6-(5-(Morpholinomethyl)pyridin-3-yl)isoquinolin-3-yl) cyclopropanecarboxamide] | 2.16 |  | 0.05 |  |  |  |
| 9.09 | > 10 | 3.23 | 3.94 | [2H]c1nc([2H])c(-c2ccc3cnc(NC(=O)CN4CCCC4)cc3c2)c([2H])c1[2H] [Compound 60, N-(6-(pyridin-3-yl-d4)isoquinolin-3-yl)-2-(pyrrolidin-1-yl)acetamide] | 2.6 |  | 0.126 | 41.9 |  |  |
| > 10 | > 10 | 0.086 | > 10 | [2H]c1nc([2H])c(-c2ccc3cnc(NC(=O)CN4CCN(C)CC4)cc3c2)c([2H])c1[2H] [Compound 61, 2-(4-Methylpiperazin-1-yl)-N-(6-(pyridin-3-yl-d4)isoquinolin-3-yl)acetamide] | > 10 | 4.6 | 0.121 | 19.6 | 26.4 | 21.6 |
| > 10 | > 10 | 0.307 | > 10 | [2H]c1nc([2H])c(-c2ccc3cnc(NC(=O)CN4CCOCC4)cc3c2)c([2H])c1[2H] [Compound 62, 2-Morpholino-N-(6-(pyridin-3-yl-d4)isoquinolin-3-yl)acetamide] | > 10 | 13.2 | 0.086 | 18.4 | 8 | 16.6 |
| > 10 | > 10 | 0.406 | > 10 | O=C(CN1CCOCC1)Nc1cc2cc(-c3ccnnc3)ccc2cn1 [Compound 67, 2-morpholino-N-(6-(pyridazin-4-yl)isoquinolin-3-yl)acetamide] | 1.03 |  | 0.206 | 26.5 | 6.3 | 19.2 |
